According to ChEMBL document CHEMBL5465560, “Selectivity Literature for EUbOPEN Chemogenomic Library” (2024):
One block for each compound: values may come before it.

Columns and labels:
[1] = molecular target: T1, Mitogen-activated protein kinase kinase kinase 15 (Homo sapiens) (UniProt Q6ZN16); assay: Selectivity interaction (KinomeScan (DiscoverX)) EUB0001049a MAP3K15; details: at 1 µM
T1 sequence (whole entry): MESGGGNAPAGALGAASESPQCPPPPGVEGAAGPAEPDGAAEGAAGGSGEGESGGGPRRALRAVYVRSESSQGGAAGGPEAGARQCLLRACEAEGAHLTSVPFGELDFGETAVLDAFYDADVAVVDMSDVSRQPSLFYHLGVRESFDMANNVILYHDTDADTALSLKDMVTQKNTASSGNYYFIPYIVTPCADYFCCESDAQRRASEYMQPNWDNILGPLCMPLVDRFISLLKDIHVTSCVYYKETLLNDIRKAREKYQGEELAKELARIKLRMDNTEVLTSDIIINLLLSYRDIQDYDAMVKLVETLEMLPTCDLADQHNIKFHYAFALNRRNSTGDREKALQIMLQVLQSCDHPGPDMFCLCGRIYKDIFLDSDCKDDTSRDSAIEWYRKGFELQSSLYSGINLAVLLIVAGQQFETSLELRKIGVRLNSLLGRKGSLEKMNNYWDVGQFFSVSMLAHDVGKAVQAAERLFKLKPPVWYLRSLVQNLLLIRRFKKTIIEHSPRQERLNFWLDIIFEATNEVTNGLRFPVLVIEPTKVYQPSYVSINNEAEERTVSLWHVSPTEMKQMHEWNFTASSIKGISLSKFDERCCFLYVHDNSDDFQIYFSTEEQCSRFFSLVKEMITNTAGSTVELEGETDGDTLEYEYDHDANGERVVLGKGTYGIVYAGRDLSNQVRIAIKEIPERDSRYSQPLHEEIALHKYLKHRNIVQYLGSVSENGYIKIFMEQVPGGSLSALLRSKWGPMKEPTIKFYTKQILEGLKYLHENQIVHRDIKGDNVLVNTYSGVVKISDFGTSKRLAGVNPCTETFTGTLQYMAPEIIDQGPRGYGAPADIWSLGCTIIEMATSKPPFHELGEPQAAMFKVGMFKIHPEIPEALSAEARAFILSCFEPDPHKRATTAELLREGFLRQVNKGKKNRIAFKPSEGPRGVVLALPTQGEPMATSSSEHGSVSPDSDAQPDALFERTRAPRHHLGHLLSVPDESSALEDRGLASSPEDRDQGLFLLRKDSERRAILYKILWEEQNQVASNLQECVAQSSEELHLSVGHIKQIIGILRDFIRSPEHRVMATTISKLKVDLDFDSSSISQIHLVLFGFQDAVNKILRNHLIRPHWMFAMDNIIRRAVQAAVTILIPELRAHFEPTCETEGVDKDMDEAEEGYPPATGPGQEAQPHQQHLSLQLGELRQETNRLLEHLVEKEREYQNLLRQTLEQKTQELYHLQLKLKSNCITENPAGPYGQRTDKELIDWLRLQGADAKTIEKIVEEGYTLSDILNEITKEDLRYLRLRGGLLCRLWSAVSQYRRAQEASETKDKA

[2] = molecular target: T2, Protein arginine N-methyltransferase 7 (Homo sapiens) (UniProt Q9NVM4); details: at 10 µM
T2 sequence (whole entry): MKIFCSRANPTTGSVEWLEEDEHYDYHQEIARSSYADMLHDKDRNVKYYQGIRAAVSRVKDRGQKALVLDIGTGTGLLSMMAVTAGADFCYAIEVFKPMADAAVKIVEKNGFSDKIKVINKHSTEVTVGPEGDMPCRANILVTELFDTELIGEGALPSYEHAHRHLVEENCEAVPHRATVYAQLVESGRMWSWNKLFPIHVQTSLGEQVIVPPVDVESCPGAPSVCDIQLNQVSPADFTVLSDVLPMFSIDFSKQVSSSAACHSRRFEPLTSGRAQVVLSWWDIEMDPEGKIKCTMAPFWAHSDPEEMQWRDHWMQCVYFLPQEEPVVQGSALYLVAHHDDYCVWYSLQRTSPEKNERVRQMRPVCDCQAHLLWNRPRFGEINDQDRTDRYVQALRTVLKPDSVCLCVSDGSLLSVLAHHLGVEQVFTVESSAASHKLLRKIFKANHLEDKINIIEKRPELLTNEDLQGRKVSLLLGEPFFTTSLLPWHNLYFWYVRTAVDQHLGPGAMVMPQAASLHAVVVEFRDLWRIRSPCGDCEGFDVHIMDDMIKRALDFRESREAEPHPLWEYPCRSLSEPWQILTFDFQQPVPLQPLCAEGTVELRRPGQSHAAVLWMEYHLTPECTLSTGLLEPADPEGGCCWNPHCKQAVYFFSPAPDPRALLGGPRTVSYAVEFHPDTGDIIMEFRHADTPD

[3] = molecular target: T3, Serine/threonine-protein kinase 3 (Homo sapiens) (UniProt Q13188); details: at 10 µM
T3 sequence (whole entry): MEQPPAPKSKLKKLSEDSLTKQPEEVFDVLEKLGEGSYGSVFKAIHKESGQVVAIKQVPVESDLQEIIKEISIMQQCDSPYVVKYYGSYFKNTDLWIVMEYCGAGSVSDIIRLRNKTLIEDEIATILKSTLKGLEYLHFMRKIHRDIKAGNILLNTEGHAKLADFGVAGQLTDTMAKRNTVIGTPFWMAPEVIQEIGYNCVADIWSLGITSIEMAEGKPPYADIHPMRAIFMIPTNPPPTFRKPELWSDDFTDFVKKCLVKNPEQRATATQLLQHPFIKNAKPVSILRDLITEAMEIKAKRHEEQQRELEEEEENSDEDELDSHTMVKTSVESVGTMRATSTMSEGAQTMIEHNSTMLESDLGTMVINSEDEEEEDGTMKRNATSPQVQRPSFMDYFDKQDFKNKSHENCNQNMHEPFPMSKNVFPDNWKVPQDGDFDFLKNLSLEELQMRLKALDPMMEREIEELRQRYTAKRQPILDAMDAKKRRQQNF

SMILES: COc1cc(Nc2nc(C)cc(-c3cnn4nc(OC)ccc34)n2)cc(C(F)(F)F)c1
% of control [1]: 100%

% activity [2]: > 90%
SMILES: CNCCN1CCC(c2cc(CN(C)C(=O)c3cccc(Oc4ccccc4)c3)ccn2)CC1

% of control [3]: 100%
SMILES: CCN(CC)CCCCNc1ncc2cc(-c3cc(OC)cc(OC)c3)c(NC(=O)NC(C)(C)C)nc2n1
